Measured values published in US7960349B2 (Bristol-Myers Squibb Company, priority 2006, dated 2011).
Where a SMILES comes first, the peptide text is derived from it. [ ]: non-standard residue; d: D form. The star is where a group is joined. ξ: configuration not given here. Ala(6-(2-MePh)pyridin-3-yl) = Cc1ccccc1-c1ccc(C[C@H](N)C(=O)O)cn1; Phe(4-(2-Et-4-HO-Ph)) = CCc1cc(O)ccc1-c1ccc(C[C@H](N)C(=O)O)cc1; ξαMePhe(2-F) = CC(N)(Cc1ccccc1F)C(=O)O; ξαMeP = CC1(C(=O)O)CCCN1; Moc = COC(=O)*

Key:
[1] = Exposure during ipGTT in ob/ob mice; type: in vivo, mouse; details: sc injection
Method: (§1) Peptides were dissolved in an appropriate vehicle at a concentration in nmol/ml equivalent to the dose that was to be administered in nmol/kg so that each mouse would receive the same volume/weight of dosing solution. Male C57BL/6-ob/ob mice (10 weeks old) were randomized into groups of 6 mice per group based on fed plasma glucose and body weight. After an overnight fast, mice were weighed and placed in the experimental lab. After 30 min in the environment, the mice were bled via tail tip at −30 min and immediately injected subcutaneously (sc) with vehicle or the peptide dissolved in vehicle (0.1 ml solution/100 g body weight). At time 0 the mice were bled and then injected intraperitoneally with 50% glucose (2 g/kg) to initiate the intraperitoneal glucose tolerance test (ipGTT). The mice were bled 30, 60, 120 and 180 min after the glucose injection. Blood samples were drawn into potassium EDTA, placed on ice during the study and subsequently centrifuged for 10 min at 3000 rpm at 4° C. Plasma samples were diluted 11-fold for glucose analysis in the Cobas System. Another 5 μl plasma sample was diluted 5-fold with 20 μl of Sample Diluent (Insulin ELISA assay kit, Crystal Chem. Inc.) and stored at −20° C. for subsequent analysis using the Ultra Sensitive Mouse Insulin ELISA kit (Crystal Chem Inc.).

Human GLP-1 Receptor = target: T1, Human GLP-1 Receptor (Homo sapiens, UniProt P43220); assay: Cyclic AMP determination in CHO cells expressing human GLP-1 receptor; type: cell-based
T1 construct: Full-length human glucagon-like peptide 1 receptor was stably expressed in CHO-K1 cells; expressed in transfected cells; host or cells: CHO-K1 (clone CHO-GLP1R-19)
Method: (§2) CHO-GLP-1R-19 cells (20,000 in 100 μl of media) were plated into each well of a 96-well tissue culture microtiter plate and incubated overnight in a 5% CO2 atmosphere at 37° C. On the day of the assay, cells were washed once with 100 μl of phosphate-buffered saline (PBS). A Biomek 2000 was used to serially dilute all peptides prior to beginning the assay. Serial dilutions were carried out in 100% DMSO.
(§3) 50 μl of each cAMP standard was added by hand and 70 μl of mix reagent (Amersham cAMP SPA kit) was added using the multidrop. […] This standard curve was used to convert CPM to pmol of cAMP.
(§4) Cell plates and peptide plates were loaded onto the Platemate. The media was aspirated from the wells and discarded. 100 uL per well of the peptide/buffer mixture were then added from the peptide plates to initiate the assay. After 30 min. of incubation the peptide/buffer was removed and 50 uL of the lysis reagent 1 solution was added per well. The plate was kept for one hour at RT or overnight if refrigerated and sealed.
(§5) Dose dependence for Compounds was determined at half-log concentrations in duplicate. […] A standard curve was determined using known amounts of cyclic AMP. […] The data were analyzed by nonlinear regression curve fitting (4 parameter sigmoidal dose-response curve) to determine the EC50 of the compounds.

[2] = Dog pharmacokinetic study; type: in vivo
Method: The pharmacokinetic parameters of the Compounds of SEQ ID NO: 9, 118, 151 and 158 were determined in male beagle dogs (n=3-4, 14±1 kg). Following an overnight fast, each animal received the Compounds of SEQ ID NO: 9, 118, 151 and 158 either as an intravenous bolus via femoral vein (67 μg/kg) or by subcutaneous injection given at near the shoulder blades (67 μg/kg). Each animal received both intravenous and subcutaneous doses with a one-week washout between doses following a crossover design. The dosing vehicle for both routes of administration was propylene glycol:pH 7.4 phosphate buffer (50:50) or 0.2 M Tris (pH 8.0). Serial blood samples were collected in EDTA-containing microcentrifuge tubes at predose, 0.083, 0.25, 0.5, 0.75, 1, 2, 4, 6, 8, 24, and 30 hours post-dose after intravenous administration; at predose, 0.25, 0.5, 0.75, 1, 2, 4, 6, 8, 24, and 30 hours post-dose after subcutaneous administration. Approximately 0.3 mL of blood was collected at each time point. Blood samples were immediately centrifuged at 4° C. The obtained plasma was frozen with dry ice and stored at −20° C. Plasma drug levels were determined using the LC-MS/MS assay described below.
Plasma samples from the in vivo dog study were prepared for analysis by precipitating plasma proteins with two volumes of AcCN containing an internal standard. The samples were vortex mixed and the precipitated proteins were removed by centrifugation. The resulting supernatants were transferred to a 96-well plate and 10 μL were injected for TFC-LC/MS/MS analysis.
The TFC-HPLC system (Cohesive TX-1 Flux, Aria 2300 System) consisted of a loading pump, an eluting pump, and a CTC PAL autosampler (Cohesive Technologies, Franklin, Mass.). The columns used were Phenomenex Synergi Fusion-RP (C18, 2.0×50 mm, 4μ) (Phenomenex, Torrance, Calif.) as the analytical column and Turbo-Flow (TF) HTLC Cyclone column (0.5×50 mm) (Cohesive Technologies, Franklin, Mass.) as the extraction column for on-line sample processing. The mobile phase A consisted of 10 mM ammonium formate and 0.1% formic acid in water and mobile phase B consisted of 0.1% formic acid in AcCN. Turbo-Flow Chromatography was used to obtain a cleaner sample. A rapid gradient elution was used for analyte separation. The samples were injected onto the Turbo-Flow HTLC Cyclone column and analytes were separated from biological fluid components with using 100% H2O at 1.5 mL/min. The TF column was back flushed and analytes were back eluted from the TF to HPLC analytical column using a ramp to 60% B over 2 min and held there for 30 seconds at 0.3 mL/min to separate and to elute the analytes from the HPLC column into the mass spectrometer. Both columns were washed for an additional minute and then both columns were re-equilibrated at initial conditions.
The HPLC was interfaced to a Sciex API 4000 mass spectrometer (Applied Biosystems, Foster City, Calif.) and was equipped with a TurboIonspray ionization source. Ultra high purity nitrogen was used as the nebulizing and turbo-gas. The temperature of turbo-gas was set at 300° C. and the interface heater was set at 60° C. Selected Reaction Monitoring (SRM) was used for data acquisition. Multiple charged ion species, i.e. (M+2H)^2+ for Compound of SEQ ID NO: 158 were selected in Q1 and were collisionally dissociated with high purity nitrogen at a pressure of 3.5×10^−3 torr in Q2 to form specific product ions which were subsequently monitored in Q3. The ion transitions and voltages are summarized below (Table 4).
The standard curve concentrations, ranging from 1 to 1000 nM, were analyzed in duplicate. The curves were fitted with a linear regression weighted by reciprocal concentration […]. Quality control (QC) samples, prepared in blank matrix at the same concentrations as the standards were also analyzed in each analytical set. […]

ob/ob mice = assay: Intraperitoneal glucose tolerance test (ipGTT) in ob/ob mice after sc injection; type: in vivo, mouse
Method: as §1

Mouse GLP-1 Receptor = target: T2, Mouse GLP-1 Receptor (Mus musculus, UniProt O35659); assay: Stimulation of cAMP synthesis in CHO cells expressing mouse GLP-1 receptor; type: cell-based
T2 construct: expressed in transfected cells; host or cells: CHO cells
T2 sequence (O35659 22-463): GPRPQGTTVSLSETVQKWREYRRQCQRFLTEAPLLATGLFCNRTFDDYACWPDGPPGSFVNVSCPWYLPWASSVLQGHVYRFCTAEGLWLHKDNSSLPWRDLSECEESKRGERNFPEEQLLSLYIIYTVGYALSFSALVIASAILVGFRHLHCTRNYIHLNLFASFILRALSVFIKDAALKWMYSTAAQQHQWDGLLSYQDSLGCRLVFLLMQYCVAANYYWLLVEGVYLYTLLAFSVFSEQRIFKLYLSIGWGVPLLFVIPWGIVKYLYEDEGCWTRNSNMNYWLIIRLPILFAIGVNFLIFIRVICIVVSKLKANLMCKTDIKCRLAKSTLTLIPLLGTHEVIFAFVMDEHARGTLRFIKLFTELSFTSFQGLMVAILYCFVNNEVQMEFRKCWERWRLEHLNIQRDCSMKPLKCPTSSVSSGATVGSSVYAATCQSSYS
Method: as §2, §3, §4, §5

T1 sequence (P43220 24-463): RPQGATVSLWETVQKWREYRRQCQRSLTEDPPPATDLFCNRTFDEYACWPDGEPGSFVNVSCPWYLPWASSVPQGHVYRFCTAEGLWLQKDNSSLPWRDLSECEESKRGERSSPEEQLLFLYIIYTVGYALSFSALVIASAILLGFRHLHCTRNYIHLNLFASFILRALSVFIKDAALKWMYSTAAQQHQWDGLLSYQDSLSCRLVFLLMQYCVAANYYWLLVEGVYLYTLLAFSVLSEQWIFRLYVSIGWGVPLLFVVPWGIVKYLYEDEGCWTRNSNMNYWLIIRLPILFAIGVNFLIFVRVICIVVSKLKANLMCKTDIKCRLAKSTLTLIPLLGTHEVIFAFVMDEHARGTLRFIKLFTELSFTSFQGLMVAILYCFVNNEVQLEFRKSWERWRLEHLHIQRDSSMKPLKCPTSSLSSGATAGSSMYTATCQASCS

## CCc1cc(O)ccc1-c1ccc(C[C@H](NC(=O)[C@H](CC(=O)O)NC(=O)[C@H](CO)NC(=O)[C@@H](NC(=O)C(C)(Cc2ccccc2F)NC(=O)[C@@H](NC(=O)CNC(=O)[C@H](CCC(=O)O)NC(=O)C2(C)CCCN2C(=O)[C@H](Cc2c[nH]cn2)NC(=O)OC)[C@@H](C)O)[C@@H](C)O)C(=O)N[C@@H](Cc2ccc(-c3ccccc3C)nc2)C(N)=O)cc1 (some centres unmarked) [SEQ ID NO: 158] (Moc-H[ξαMeP]EGT[ξαMePhe(2-F)]TSD[Phe(4-(2-Et-4-HO-Ph))][Ala(6-(2-MePh)pyridin-3-yl)]-NH2)
[1]
  Exposure/dose during ipGTT in ob/ob mice: 11 nM * h/nmol/kg
Human GLP-1 Receptor
  EC50: 0.018 nM
Human GLP-1 Receptor; CHO, percent of maximal GLP-1 stimulated activity, human GLP-1 receptor
  Emax: 101 ± 6.7%
Human GLP-1 Receptor; human GLP-1 receptor
  Mean Hill: 1.5
[2]; dog, plasma, 67 ug/kg, male beagle dogs, intravenous 67 μg/kg, read-out: Vss
  Vd: 0.15 ± 0.02 L/kg
[2]; sc 67 μg/kg, vehicle 0.2 M Tris buffer (pH 8.0)
  Exposure in dogs (sc@67 μg/kg): 1467 nM·h
ob/ob mice; 10 nmol/kg sc, ipGTT ob/ob mice
  plasma glucose AUC decreased: 66%
ob/ob mice; sc injection, plasma glucose AUC in ipGTT
  Potency in ob/ob mice ED50: ED50 = 2 nmoles/kg
ob/ob mice; sc, ipGTT ob/ob mice, 0 to 180 or 210 min
  effect on postprandial plasma glucose: statistically significant decrease
Mouse GLP-1 Receptor
  Mean Hill: 1.5
Mouse GLP-1 Receptor; CHO, percent of maximal GLP-1 stimulated activity
  Emax: 101 ± 7.2%
